Where “and” joins values, the source holds several entries; their conditions need not be identical. Identical values can stand only once.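 Method: 48-hour compound exposure of cells in 96-well plates, five concentrations, linear interpolation of endpoints. At the GI50, growth is halved. TGI is the concentration that stops growth completely.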
Assays:
Assay in all cases: NCI tumour cell line growth inhibition, 48 h
DLD-1 colon = test system: DLD-1 colon
M19-MEL melanoma = test system: M19-MEL melanoma
COLO 205 colon = test system: COLO 205 colon
DU-145 prostate = test system: DU-145 prostate
M14 melanoma = test system: M14 melanoma
UO-31 renal = test system: UO-31 renal
K-562 leukemia = test system: K-562 leukemia
SK-MEL-5 melanoma = test system: SK-MEL-5 melanoma
SF-295 CNS = test system: SF-295 CNS
SR leukemia = test system: SR leukemia
U251 CNS = test system: U251 CNS
XF 498 CNS = test system: XF 498 CNS
TK-10 renal = test system: TK-10 renal
PC-3 prostate = test system: PC-3 prostate
HOP-62 NSCLC = test system: HOP-62 NSCLC
OVCAR-5 ovarian = test system: OVCAR-5 ovarian
SF-539 CNS = test system: SF-539 CNS
MDA-MB-231 breast = test system: MDA-MB-231 breast
SN12C renal = test system: SN12C renal
CCRF-CEM leukemia = test system: CCRF-CEM leukemia
OVCAR-3 ovarian = test system: OVCAR-3 ovarian
RPMI-8226 leukemia = test system: RPMI-8226 leukemia
MCF7 breast = test system: MCF7 breast
IGROV1 ovarian = test system: IGROV1 ovarian
HOP-92 NSCLC = test system: HOP-92 NSCLC
LOX IMVI melanoma = test system: LOX IMVI melanoma
SF-268 CNS = test system: SF-268 CNS
NCI-H23 lung = test system: NCI-H23 lung
SNB-19 CNS = test system: SNB-19 CNS
MOLT-4 leukemia = test system: MOLT-4 leukemia
MDA-MB-435 = test system: MDA-MB-435
HCT-116 colon = test system: HCT-116 colon
HOP-18 NSCLC = test system: HOP-18 NSCLC
UACC-257 melanoma = test system: UACC-257 melanoma
HCT-15 colon = test system: HCT-15 colon
SN12K1 renal = test system: SN12K1 renal
HL-60(TB) leukemia = test system: HL-60(TB) leukemia
SW-620 colon = test system: SW-620 colon
UACC-62 melanoma = test system: UACC-62 melanoma
DMS 273 small cell lung = test system: DMS 273 small cell lung
NCI-H226 lung = test system: NCI-H226 lung
ACHN renal = test system: ACHN renal
T-47D breast = test system: T-47D breast
SK-MEL-2 melanoma = test system: SK-MEL-2 melanoma
NCI/ADR-RES ovarian = test system: NCI/ADR-RES ovarian
HCC-2998 colon = test system: HCC-2998 colon
HT29 colon = test system: HT29 colon
CAKI-1 renal = test system: CAKI-1 renal
HS 578T breast = test system: HS 578T breast
786-0 renal = test system: 786-0 renal
EKVX NSCLC = test system: EKVX NSCLC
BT-549 breast = test system: BT-549 breast
A498 renal = test system: A498 renal
SK-MEL-28 melanoma = test system: SK-MEL-28 melanoma
MDA-N = test system: MDA-N
A549 NSCLC = test system: A549 NSCLC
P388 leukemia = test system: P388 leukemia
SK-OV-3 ovarian = test system: SK-OV-3 ovarian
KM20L2 colon = test system: KM20L2 colon
NCI-H522 lung = test system: NCI-H522 lung
SNB-75 CNS = test system: SNB-75 CNS
P388/ADR leukemia = test system: P388/ADR leukemia
OVCAR-4 ovarian = test system: OVCAR-4 ovarian
RXF 393 renal = test system: RXF 393 renal
OVCAR-8 ovarian = test system: OVCAR-8 ovarian
NCI-H460 lung = test system: NCI-H460 lung
KM12 colon = test system: KM12 colon

Q: Which results are given for O=C1C=CN(C2OC(CO)C(O)C2O)C(=O)C1 (stereo not given)?
A: GI50 (DLD-1 colon): 21.5 µM; TGI (DLD-1 colon): 625 µM and > 2500 µM; TGI (M19-MEL melanoma): 1.37 mM; GI50 (COLO 205 colon): 60.2 µM; TGI (COLO 205 colon): 625 µM and > 2500 µM; TGI (DU-145 prostate): > 819 µM; TGI (M14 melanoma): > 2.5 mM; GI50 (UO-31 renal): 26.7 µM; TGI (UO-31 renal): 625 µM and > 2500 µM; TGI (K-562 leukemia): > 2.5 mM; GI50 (SK-MEL-5 melanoma): > 625 µM and 325 µM; TGI (SK-MEL-5 melanoma): > 2.5 mM; GI50 (SF-295 CNS): 116 µM and 59.1 µM; TGI (SF-295 CNS): 625 µM and > 2060 µM; TGI (SR leukemia): > 2.5 mM; GI50 (U251 CNS): 298 µM and 289 µM; TGI (U251 CNS): 625 µM and > 2500 µM; GI50 (XF 498 CNS): 409 µM; TGI (XF 498 CNS): 1.94 mM; TGI (TK-10 renal): > 2.5 mM; TGI (PC-3 prostate): > 2.5 mM; GI50 (HOP-62 NSCLC): 18.7 µM; TGI (HOP-62 NSCLC): 625 µM and 1340 µM; TGI (OVCAR-5 ovarian): > 2.5 mM; GI50 (SF-539 CNS): 146 µM; TGI (SF-539 CNS): 0.625 mM and 1.8 mM; TGI (MDA-MB-231 breast): > 2.5 mM; GI50 (SN12C renal): 1340 nM; GI50 (CCRF-CEM leukemia): > 625 µM; TGI (CCRF-CEM leukemia): > 1.71 mM; TGI (OVCAR-3 ovarian): > 1.87 mM; GI50 (RPMI-8226 leukemia): 23.1 µM; TGI (RPMI-8226 leukemia): 496 µM and > 2500 µM; GI50 (MCF7 breast): 4.63 µM; TGI (MCF7 breast): 625 µM and > 2500 µM; GI50 (IGROV1 ovarian): 77 µM; TGI (IGROV1 ovarian): 625 µM and > 2210 µM; GI50 (HOP-92 NSCLC): 13.6 µM and 66.2 µM; TGI (LOX IMVI melanoma): 625 µM and 788 µM; GI50 (SF-268 CNS): 172 µM and 231 µM; TGI (SF-268 CNS): 625 µM and > 2500 µM; GI50 (NCI-H23 lung): > 625 µM and 356 µM; TGI (NCI-H23 lung): > 2.5 mM; GI50 (SNB-19 CNS): > 625 µM and 819 µM; TGI (SNB-19 CNS): > 2.5 mM; TGI (MOLT-4 leukemia): 476 µM; TGI (MDA-MB-435): > 2.5 mM; GI50 (HCT-116 colon): 2540 nM; TGI (HCT-116 colon): 625 µM and > 2500 µM; GI50 (HOP-18 NSCLC): > 625 µM; TGI (HOP-18 NSCLC): > 2.5 mM; TGI (UACC-257 melanoma): > 1.94 mM; GI50 (HCT-15 colon): 54.6 µM; TGI (HCT-15 colon): 625 µM and > 2500 µM; GI50 (SN12K1 renal): 24.7 µM and 14.4 µM; TGI (SN12K1 renal): 625 µM and > 810 µM; GI50 (HL-60(TB) leukemia): 6.25 µM; TGI (HL-60(TB) leukemia): 625 µM and > 2500 µM; GI50 (SW-620 colon): 71.4 µM; TGI (SW-620 colon): 625 µM and > 2500 µM; GI50 (UACC-62 melanoma): 33.3 µM; TGI (UACC-62 melanoma): 625 µM and > 1840 µM; GI50 (DMS 273 small cell lung): > 625 µM; TGI (DMS 273 small cell lung): > 2.5 mM; GI50 (NCI-H226 lung): > 625 µM; TGI (NCI-H226 lung): > 2.5 mM; TGI (ACHN renal): > 2.5 mM; TGI (T-47D breast): > 1.75 mM; GI50 (SK-MEL-2 melanoma): 115 µM and 1040 µM; TGI (SK-MEL-2 melanoma): 625 µM and > 2500 µM; TGI (NCI/ADR-RES ovarian): 625 µM and > 2500 µM; TGI (HCC-2998 colon): 625 µM and > 2500 µM; GI50 (HT29 colon): 13 µM; TGI (HT29 colon): 625 µM and > 1730 µM; GI50 (CAKI-1 renal): 17.3 µM; TGI (CAKI-1 renal): 296 µM and 1010 µM; TGI (HS 578T breast): > 747 µM; TGI (786-0 renal): 1.26 mM; TGI (EKVX NSCLC): > 2.5 mM; TGI (BT-549 breast): > 2.5 mM; TGI (A498 renal): > 2.5 mM; GI50 (SK-MEL-28 melanoma): > 625 µM and 252 µM; TGI (SK-MEL-28 melanoma): > 2.5 mM; TGI (MDA-N): > 2.5 mM; GI50 (A549 NSCLC): 28.9 µM; TGI (A549 NSCLC): 625 µM and > 2500 µM; TGI (P388 leukemia): 52.5 µM; GI50 (SK-OV-3 ovarian): 580 µM; TGI (SK-OV-3 ovarian): 625 µM and > 2320 µM; GI50 (KM20L2 colon): 19.9 µM; TGI (KM20L2 colon): 625 µM and > 1160 µM; GI50 (NCI-H522 lung): > 625 µM and 518 µM; TGI (NCI-H522 lung): > 2.32 mM; TGI (SNB-75 CNS): > 2.5 mM; TGI (P388/ADR leukemia): > 992 µM; GI50 (OVCAR-4 ovarian): > 625 µM and 953 µM; TGI (OVCAR-4 ovarian): > 2.5 mM; GI50 (RXF 393 renal): 514 µM; TGI (RXF 393 renal): 625 µM and > 2500 µM; GI50 (OVCAR-8 ovarian): 72.6 µM and 42.7 µM; TGI (OVCAR-8 ovarian): 625 µM and > 2500 µM; GI50 (NCI-H460 lung): 728 nM; TGI (NCI-H460 lung): 625 µM and 569 µM; GI50 (KM12 colon): 22.3 µM and 39.6 µM; TGI (KM12 colon): 625 µM and > 2500 µM
